The supplement of paper PMC11424490

What was measured:
NCI-H2122 [1] = assay: combination cScore with adagrasib (Bliss gap around IC50) (%PoC); higher = stronger additive effect
Procedure, shortened: (§1)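 The score averages the gap between expected and measured viability under Bliss independence, taken over a field around the IC50 of each single agent or, where an IC50 was not reached, at the highest concentrations. Viability came from CellTiter-Glo luminescence, normalised to vehicle wells as percent of control and fitted with four-parameter curves. NCI-H2122, NCI-H358 and SW837 cells were dosed in concentration matrices 24 h after seeding and grown for 72 h, or 144 h for SW837.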

NCI-H358 [2] = assay: as above
Procedure, shortened: as §1

SW837 [3] = assay: as above
Procedure, shortened: as §1

NCI-H2122 [4] = assay: combination cScore with sotorasib (Bliss gap around IC50) (%PoC); higher = stronger additive effect
Procedure, shortened: as §1

NCI-H358 [5] = assay: as above
Procedure, shortened: as §1

SW837 [6] = assay: as above
Procedure, shortened: as §1

| SMILES | combination cScore with adagrasib (NCI-H2122 [1]) | combination cScore with adagrasib (NCI-H358 [2]) | combination cScore with adagrasib (SW837 [3]) | combination cScore with sotorasib (NCI-H2122 [4]) | combination cScore with sotorasib (NCI-H358 [5]) | combination cScore with sotorasib (SW837 [6]) |
| --- | --- | --- | --- | --- | --- | --- |
| CC/C(=C(\c1ccccc1)c1ccc(OCCN(C)C)cc1)c1ccccc1 [Tamoxifen] + C=C(F)C(=O)N1CCN(c2nc(OC[C@@H]3CCCN3C)nc3c2CCN(c2cccc4cccc(Cl)c24)C3)C[C@@H]1CC#N [adagrasib] | 10.3 | 6.27 | 5.45 |  |  |  |
| Nc1cc(C(F)(F)F)c(-c2cc(N3CCOCC3)nc(N3CCOCC3)n2)cn1 [BKM120] + C=C(F)C(=O)N1CCN(c2nc(OC[C@@H]3CCCN3C)nc3c2CCN(c2cccc4cccc(Cl)c24)C3)C[C@@H]1CC#N [adagrasib] | 12.9 | 2.43 | 9.24 |  |  |  |
| COc1ncc(-c2ccc3nccc(-c4ccnnc4)c3c2)cc1NS(=O)(=O)c1ccc(F)cc1F + C=C(F)C(=O)N1CCN(c2nc(OC[C@@H]3CCCN3C)nc3c2CCN(c2cccc4cccc(Cl)c24)C3)C[C@@H]1CC#N [adagrasib] | 23.1 | 5.98 | 4.03 |  |  |  |
| Cc1c(Cn2c(C)nc3c(C(=O)O)cc(N4CCOCC4)cc32)cccc1C(F)(F)F + C=C(F)C(=O)N1CCN(c2nc(OC[C@@H]3CCCN3C)nc3c2CCN(c2cccc4cccc(Cl)c24)C3)C[C@@H]1CC#N [adagrasib] | 8.98 | -4.04 | -1.49 |  |  |  |
| O=C(c1c(F)ccc(NS(=O)(=O)N2CC[C@@H](F)C2)c1F)c1c[nH]c2ncc(-c3cnc(C4CC4)nc3)cc12 [PLX8394] + C=C(F)C(=O)N1CCN(c2nc(OC[C@@H]3CCCN3C)nc3c2CCN(c2cccc4cccc(Cl)c24)C3)C[C@@H]1CC#N [adagrasib] | 17.5 | 0.57 | -2.23 |  |  |  |
| CCNC(=O)C[C@@H]1N=C(c2ccc(Cl)cc2)c2cc(OC)ccc2-n2c(C)nnc21 [iBET-762] + C=C(F)C(=O)N1CCN(c2nc(OC[C@@H]3CCCN3C)nc3c2CCN(c2cccc4cccc(Cl)c24)C3)C[C@@H]1CC#N [adagrasib] | 22.7 | 5.14 | 0.28 |  |  |  |
| Cc1nc(Nc2n[nH]c3c2CN(C(=O)N[C@H](CN(C)C)c2ccccc2)C3(C)C)c2sccc2n1 + C=C(F)C(=O)N1CCN(c2nc(OC[C@@H]3CCCN3C)nc3c2CCN(c2cccc4cccc(Cl)c24)C3)C[C@@H]1CC#N [adagrasib] | 8.47 | -5.91 | -0.72 |  |  |  |
| CCc1nc(N)nc(N)c1-c1ccc(Cl)cc1 [Pyrimethamine] + C=C(F)C(=O)N1CCN(c2nc(OC[C@@H]3CCCN3C)nc3c2CCN(c2cccc4cccc(Cl)c24)C3)C[C@@H]1CC#N [adagrasib] | 15.2 | -2.05 | -3.37 |  |  |  |
| CS(=O)(=O)CCNCc1ccc(-c2ccc3ncnc(Nc4ccc(OCc5cccc(F)c5)c(Cl)c4)c3c2)o1 [Lapatinib] + C=C(F)C(=O)N1CCN(c2nc(OC[C@@H]3CCCN3C)nc3c2CCN(c2cccc4cccc(Cl)c24)C3)C[C@@H]1CC#N [adagrasib] | 18.6 | 11.3 | 11.2 |  |  |  |
| CN(C)C/C=C/C(=O)Nc1cc2c(Nc3ccc(F)c(Cl)c3)ncnc2cc1O[C@H]1CCOC1 [Afatinib] + C=C(F)C(=O)N1CCN(c2nc(OC[C@@H]3CCCN3C)nc3c2CCN(c2cccc4cccc(Cl)c24)C3)C[C@@H]1CC#N [adagrasib] | 11.1 | 11.5 | 21.2 |  |  |  |
| COc1cc(Nc2ncc(F)c(Nc3ccc4c(n3)N(COP(=O)(O)O)C(=O)C(C)(C)O4)n2)cc(OC)c1OC [Fostamatinib] + C=C(F)C(=O)N1CCN(c2nc(OC[C@@H]3CCCN3C)nc3c2CCN(c2cccc4cccc(Cl)c24)C3)C[C@@H]1CC#N [adagrasib] | 17.4 | 3.37 | 7.91 |  |  |  |
| COc1cc(N2CCC(N3CCN(C)CC3)CC2)ccc1Nc1ncc(Cl)c(Nc2ccccc2S(=O)(=O)C(C)C)n1 [NVP-TAE684] + C=C(F)C(=O)N1CCN(c2nc(OC[C@@H]3CCCN3C)nc3c2CCN(c2cccc4cccc(Cl)c24)C3)C[C@@H]1CC#N [adagrasib] | 12.8 | 3.66 | 23.6 |  |  |  |
| COC(=O)[C@]12CCC(C)(C)C[C@H]1[C@H]1C(=O)C=C3[C@@]4(C)C=C(C#N)C(=O)C(C)(C)[C@@H]4CC[C@@]3(C)[C@]1(C)CC2 [Bardoxolone methyl] + C=C(F)C(=O)N1CCN(c2nc(OC[C@@H]3CCCN3C)nc3c2CCN(c2cccc4cccc(Cl)c24)C3)C[C@@H]1CC#N [adagrasib] | 5.12 | -4.25 | 0.43 |  |  |  |
| Cc1nc(-c2cn3c(n2)-c2ccc(-c4cnn(C(C)(C)C(N)=O)c4)cc2OCC3)n(C(C)C)n1 [Taselisib] + C=C(F)C(=O)N1CCN(c2nc(OC[C@@H]3CCCN3C)nc3c2CCN(c2cccc4cccc(Cl)c24)C3)C[C@@H]1CC#N [adagrasib] | 18.1 | 7.08 | 26.6 |  |  |  |
| CC1(C)CCC(c2ccc(Cl)cc2)=C(CN2CCN(c3ccc(C(=O)NS(=O)(=O)c4ccc(N[C@H](CCN5CCOCC5)CSc5ccccc5)c(S(=O)(=O)C(F)(F)F)c4)cc3)CC2)C1 [ABT-263] + C=C(F)C(=O)N1CCN(c2nc(OC[C@@H]3CCCN3C)nc3c2CCN(c2cccc4cccc(Cl)c24)C3)C[C@@H]1CC#N [adagrasib] | 12.1 | 6.81 | 30.9 |  |  |  |
| Oc1nc(-c2ccc(C(F)(F)F)cc2)nc2c1CSCC2 [XAV939] + C=C(F)C(=O)N1CCN(c2nc(OC[C@@H]3CCCN3C)nc3c2CCN(c2cccc4cccc(Cl)c24)C3)C[C@@H]1CC#N [adagrasib] | 23.8 | 4.11 | 5.74 |  |  |  |
| NC1(c2ccc(-c3nc4ccn5c(=O)[nH]nc5c4cc3-c3ccccc3)cc2)CCC1 [MK-2206] + C=C(F)C(=O)N1CCN(c2nc(OC[C@@H]3CCCN3C)nc3c2CCN(c2cccc4cccc(Cl)c24)C3)C[C@@H]1CC#N [adagrasib] | 8 | 6.39 | 12.2 |  |  |  |
| Oc1nc(-c2ccc(C(F)(F)F)cc2)nc2c1CSCC2 [XAV939] + C=CC(=O)N1CCN(c2nc(=O)n(-c3c(C)ccnc3C(C)C)c3nc(-c4c(O)cccc4F)c(F)cc23)[C@@H](C)C1 [sotorasib] |  |  |  | 14.2 | 7.36 | 7.47 |
| C[C@H](Nc1ncnc2nc[nH]c12)c1cc2cccc(Cl)c2c(=O)n1-c1ccccc1 [Duvelisib] + C=CC(=O)N1CCN(c2nc(=O)n(-c3c(C)ccnc3C(C)C)c3nc(-c4c(O)cccc4F)c(F)cc23)[C@@H](C)C1 [sotorasib] |  |  |  | 14.2 | 4.86 | 18.6 |
| COc1cc2nc(C)nc(N[C@H](C)c3cc(N)cc(C(F)(F)F)c3)c2cc1O[C@H]1CCOC1 [BI-3406 (SOSi)] + C=CC(=O)N1CCN(c2nc(=O)n(-c3c(C)ccnc3C(C)C)c3nc(-c4c(O)cccc4F)c(F)cc23)[C@@H](C)C1 [sotorasib] |  |  |  | 28.9 | 13 | 9.14 |
| Cc1ccc(C(=O)Nc2ccc(CN3CCN(C)CC3)c(C(F)(F)F)c2)cc1C#Cc1cnc2cccnn12 [Ponatinib] + C=CC(=O)N1CCN(c2nc(=O)n(-c3c(C)ccnc3C(C)C)c3nc(-c4c(O)cccc4F)c(F)cc23)[C@@H](C)C1 [sotorasib] |  |  |  | 19.1 | 0.16 | 1.65 |
| CNS(=O)(=O)Nc1nccc(Cc2c(C)c3ccc(Oc4ncccn4)cc3oc2=O)c1F + C=CC(=O)N1CCN(c2nc(=O)n(-c3c(C)ccnc3C(C)C)c3nc(-c4c(O)cccc4F)c(F)cc23)[C@@H](C)C1 [sotorasib] |  |  |  | 8.14 | 4.31 | 5.63 |
| CCCc1cc(C)[nH]c(=O)c1CNC(=O)c1cc(-c2ccnc(N3CCN(C)CC3)c2)cc2c1cnn2C(C)C [GSK343] + C=CC(=O)N1CCN(c2nc(=O)n(-c3c(C)ccnc3C(C)C)c3nc(-c4c(O)cccc4F)c(F)cc23)[C@@H](C)C1 [sotorasib] |  |  |  | 8.7 | 2.88 | 9.75 |
| CCS(=O)(=O)Nc1ccc2c(c1)/C(=C(/Nc1ccc(CN3CCCCC3)cc1)c1ccccc1)C(=O)N2 [Hesperadin] + C=CC(=O)N1CCN(c2nc(=O)n(-c3c(C)ccnc3C(C)C)c3nc(-c4c(O)cccc4F)c(F)cc23)[C@@H](C)C1 [sotorasib] |  |  |  | 12.3 | 4.25 | 5.4 |
